Reference: patent US8163702B2, “Treatment of melanoma” (SciClone Pharmaceuticals, Inc., priority 2006, dated 2012)

System: murine B16 melanoma
Assay: Antitumor effect in murine B16 melanoma model, tumor size and tumor weight (Example 2)
Format: in vivo, C57BL/6 mice
Settings: Day 12
Method: As per aseptic tissue culture procedures, one vial of B16 melanoma cells (supplied by Cell Culture Center of CAMS) was thawed and centrifuged at 1000 rpm, 20-25° C. for 5 minutes. The cell pellets were suspended in 0.1-0.5 mL normal saline (NS) and subcutaneously injected into the right axilla of each mouse (approximately 1×10^6 cells/mouse). When the tumor diameter was 1 cm approximately (measured by vernier caliper), the animals were euthanized with CO2 asphyxiation and the tumor was excised. Tumor cells were suspended in normal saline as previously described and the cell adaptation cycle was repeated once.
On Day 0, 1×10^6 B16 cells in a volume of 0.1 mL normal saline were subcutaneously injected into the right axillary area of the mouse. The day of tumor inoculation was defined as Day 0.
Dosing was initiated on Day 1.
Observations were recorded daily for mortality and moribundity. […] The tumors were excised, separated, and weighed.
Tumor volume was calculated using the following formula: Tumor Volume=Length×Width×Width/2 Tumor volume inhibition rate (IR) was calculated according to the formula: IR(TV)=(TVvehicle−TVdrug treated)/TVvehicle×100% TV is the tumor volume on the day of measurement.
The antitumor effect of the test article was also evaluated by tumor weight. The tumor weight of each mouse was recorded after euthanasia, and the inhibition rate of tumor weight was calculated according to the formula: IR(TW)=(Tumor weightvehicle−Tumor weightdrug treated)/Tumor weightvehicle×100%

## N[C@H](CCC(=O)N[C@@H](Cc1c[nH]c2ccccc12)C(=O)O)C(=O)O [SCV-07, γ-D-glutamyl-L-tryptophan]
Mouse F2, SCV-07 5.0 mg/kg sc
  Tumor measurements L: 1.0 cm
  Tumor measurements W: 1.0 cm
  Tumor volumes: 0.50 cm^3
Mouse F3, SCV-07 0.01 mg/kg sc
  Tumor measurements L: 0.1 cm
  Tumor measurements W: 0.1 cm
  Tumor volumes: 5E−04 cm^3
Mouse F3, SCV-07 0.1 mg/kg sc
  Tumor measurements L: 1.1 cm
  Tumor measurements W: 1.0 cm
  Tumor volumes: 0.55 cm^3
Mouse F3, SCV-07 1.0 mg/kg sc
  Tumor measurements L: 1.0 cm
  Tumor measurements W: 1.0 cm
  Tumor volumes: 0.50 cm^3
Mouse F3, SCV-07 5.0 mg/kg sc
  Tumor measurements L: 0.7 cm
  Tumor measurements W: 0.7 cm
  Tumor volumes: 0.17 cm^3
Mouse F4, SCV-07 0.01 mg/kg sc
  Tumor measurements L: 1.0 cm
  Tumor measurements W: 1.0 cm
  Tumor volumes: 0.50 cm^3
Mouse F4, SCV-07 0.1 mg/kg sc
  Tumor measurements L: 1.1 cm
  Tumor measurements W: 1.1 cm
  Tumor volumes: 0.67 cm^3
Mouse F4, SCV-07 1.0 mg/kg sc
  Tumor measurements L: 0.1 cm
  Tumor measurements W: 0.1 cm
  Tumor volumes: 0.00 cm^3
Mouse F4, SCV-07 5.0 mg/kg sc
  Tumor measurements L: 0.8 cm
  Tumor measurements W: 0.8 cm
  Tumor volumes: 0.26 cm^3
Mouse F5, SCV-07 0.01 mg/kg sc
  Tumor measurements L: 1.0 cm
  Tumor measurements W: 0.9 cm
  Tumor volumes: 0.41 cm^3
Mouse F5, SCV-07 0.1 mg/kg sc
  Tumor measurements L: 0.3 cm
  Tumor measurements W: 0.3 cm
  Tumor volumes: 0.01 cm^3
Mouse F5, SCV-07 1.0 mg/kg sc
  Tumor measurements L: 1.0 cm
  Tumor measurements W: 1.0 cm
  Tumor volumes: 0.50 cm^3
Mouse F5, SCV-07 5.0 mg/kg sc
  Tumor measurements L: 1.0 cm
  Tumor measurements W: 1.0 cm
  Tumor volumes: 0.50 cm^3
Mouse M1, SCV-07 0.01 mg/kg sc
  Tumor measurements L: 1.1 cm
  Tumor measurements W: 1.1 cm
  Tumor volumes: 0.67 cm^3
Mouse M1, SCV-07 0.1 mg/kg sc
  Tumor measurements L: 1.1 cm
  Tumor measurements W: 1.1 cm
  Tumor volumes: 0.67 cm^3
Mouse M1, SCV-07 1.0 mg/kg sc
  Tumor measurements L: 0.8 cm
  Tumor measurements W: 0.7 cm
  Tumor volumes: 0.20 cm^3
Mouse M1, SCV-07 5.0 mg/kg sc
  Tumor measurements L: 0.7 cm
  Tumor measurements W: 0.7 cm
  Tumor volumes: 0.17 cm^3
Mouse M2, SCV-07 0.01 mg/kg sc
  Tumor measurements L: 0.9 cm
  Tumor measurements W: 0.9 cm
  Tumor volumes: 0.36 cm^3
Mouse M2, SCV-07 0.1 mg/kg sc
  Tumor measurements L: 0.9 cm
  Tumor measurements W: 0.9 cm
  Tumor volumes: 0.36 cm^3
Mouse M2, SCV-07 1.0 mg/kg sc
  Tumor measurements L: 1.0 cm
  Tumor measurements W: 1.0 cm
  Tumor volumes: 0.50 cm^3
Mouse M2, SCV-07 5.0 mg/kg sc
  Tumor measurements L: 0.9 cm
  Tumor measurements W: 0.9 cm
  Tumor volumes: 0.36 cm^3
Mouse M3, SCV-07 0.01 mg/kg sc
  Tumor measurements L: 1.1 cm
  Tumor measurements W: 0.9 cm
  Tumor volumes: 0.45 cm^3
Mouse M3, SCV-07 0.1 mg/kg sc
  Tumor measurements L: 1.1 cm
  Tumor measurements W: 1.1 cm
